Test results reported in ChEMBL document CHEMBL3779785, “1,3,4-Oxadiazole derivatives as potential antitumor agents: discovery, optimization and biological activity valuation” (Medchemcomm, 2016).

How the values were obtained:
[1] = system: HepG2; test: Antiproliferative activity against human HepG2 cells after 24 hrs by MTT assay; details: HepG2, 24 h
[2] = system: HeLa; test: Antiproliferative activity against human HeLa cells after 24 hrs by MTT assay
[3] = Cytotoxicity against human macrophages assessed as cell growth inhibition; type: cell-based, Macrophage
[4] = system: MCF7; test: Antiproliferative activity against human MCF7 cells after 24 hrs by MTT assay; details: MCF7, 24 h
[5] = system: HeLa; test: Induction of apoptosis in human HeLa cells assessed as early apoptotic cells at 10 uM after 24 hrs by Annexin V FITC/propidium iodide staining based flow cytometric analysis (reference value: 8.45 %); type: functional
[6] = system: HeLa; test: Induction of apoptosis in human HeLa cells assessed as late apoptotic cells at 50 uM after 24 hrs by Annexin V FITC/propidium iodide staining based flow cytometric analysis (reference value: 10.17 %); type: functional
[7] = system: HeLa; test: Induction of apoptosis in human HeLa cells assessed as late apoptotic cells at 10 uM after 24 hrs by Annexin V FITC/propidium iodide staining based flow cytometric analysis (reference value: 10.17 %); type: functional
[8] = system: HeLa; test: Induction of apoptosis in human HeLa cells assessed as early apoptotic cells at 50 uM after 24 hrs by Annexin V FITC/propidium iodide staining based flow cytometric analysis (reference value: 8.45 %); type: functional
[9] = system: HeLa; test: Induction of apoptosis in human HeLa cells assessed as early apoptotic cells at 2 uM after 24 hrs by Annexin V FITC/propidium iodide staining based flow cytometric analysis (reference value: 8.45 %); type: functional
[10] = system: HeLa; test: Induction of apoptosis in human HeLa cells assessed as late apoptotic cells after 24 hrs by Annexin V FITC/propidium iodide staining based flow cytometric analysis; type: functional, cell-based
[11] = system: HeLa; test: Induction of apoptosis in human HeLa cells assessed as early apoptotic cells after 24 hrs by Annexin V FITC/propidium iodide staining based flow cytometric analysis; type: functional, cell-based
[12] = system: HeLa; test: Induction of apoptosis in human HeLa cells assessed as late apoptotic cells at 2 uM after 24 hrs by Annexin V FITC/propidium iodide staining based flow cytometric analysis (reference value: 10.17 %); type: functional

| Compound | IC50 [1] | IC50 [2] | CC50 [3] | IC50 [4] | Activity [5] | Activity [6] | Activity [7] | Activity [8] | Activity [9] | Activity [10] | Activity [11] | Activity [12] |
| --- | --- | --- | --- | --- | --- | --- | --- | --- | --- | --- | --- | --- |
| Brc1cccc(-c2nnc(Cn3nnc4ccccc43)o2)c1 | 488 µM | 301 µM | > 100 µM | 382 µM | – | – | – | – | – | – | – | – |
| Brc1ccc(-c2nnc(Cn3nnc4ccccc43)o2)cc1 | 438 µM | 305 µM | > 100 µM | 387 µM | – | – | – | – | – | – | – | – |
| Brc1cccc(Cc2nnc(Cn3nnc4ccccc43)o2)c1 | 398 µM | 182 µM | > 100 µM | 269 µM | – | – | – | – | – | – | – | – |
| COc1ccccc1Cc1nnc(Cn2nnc3ccccc32)o1 | 334 µM | 11 µM | > 100 µM | 15 µM | 23.57% | 35.86% | 20.79% | 36.18% | 9.86% | Dose-dependent effect | Dose-dependent effect | 19.6% |
| COc1ccccc1-c1nnc(Cn2nnc3ccccc32)o1 | 452 µM | 216 µM | > 100 µM | 331 µM | – | – | – | – | – | – | – | – |
| Fc1cccc(Cc2nnc(Cn3nnc4ccccc43)o2)c1 | 368 µM | 237 µM | > 100 µM | 357 µM | – | – | – | – | – | – | – | – |
| COc1ccc(-c2nnc(Cn3nnc4ccccc43)o2)cc1 | 477 µM | 269 µM | > 100 µM | 376 µM | – | – | – | – | – | – | – | – |
| O=[N+]([O-])c1ccc(Cc2nnc(Cn3nnc4ccccc43)o2)cc1 | 367 µM | 157 µM | > 100 µM | 253 µM | – | – | – | – | – | – | – | – |
| Clc1cccc(-c2nnc(Cn3nnc4ccccc43)o2)c1 | 440 µM | 327 µM | > 100 µM | 390 µM | – | – | – | – | – | – | – | – |
| c1ccc(Cc2nnc(Cn3nnc4ccccc43)o2)cc1 | 369 µM | 167 µM | > 100 µM | 258 µM | – | – | – | – | – | – | – | – |
| Clc1cccc(Cc2nnc(Cn3nnc4ccccc43)o2)c1 | 401 µM | 230 µM | > 100 µM | 292 µM | – | – | – | – | – | – | – | – |
| COc1cccc(Cc2nnc(Cn3nnc4ccccc43)o2)c1 | 350 µM | 123 µM | > 100 µM | 241 µM | – | – | – | – | – | – | – | – |
| Brc1ccc(Cc2nnc(Cn3nnc4ccccc43)o2)cc1 | 357 µM | 198 µM | > 100 µM | 277 µM | – | – | – | – | – | – | – | – |
| O=[N+]([O-])c1ccc(-c2nnc(Cn3nnc4ccccc43)o2)cc1 | 483 µM | 299 µM | > 100 µM | 13 µM | – | – | – | – | – | – | – | – |
| Fc1cccc(-c2nnc(Cn3nnc4ccccc43)o2)c1 | 451 µM | 332 µM | > 100 µM | 398 µM | – | – | – | – | – | – | – | – |
| COc1ccc(Cc2nnc(Cn3nnc4ccccc43)o2)cc1 | 357 µM | 150 µM | > 100 µM | 251 µM | – | – | – | – | – | – | – | – |
| COc1cccc(-c2nnc(Cn3nnc4ccccc43)o2)c1 | 476 µM | 243 µM | > 100 µM | 370 µM | – | – | – | – | – | – | – | – |
